Source: patent publication US20110028444A1, “PHARMACEUTICALLY ACCEPTABLE SALTS OF ANTI-INFECTION QUINOLONE COMPOUNDS” (priority 2008, published 2011)
≈ marks a conversion by molar mass, not a printed value. Where two headings read alike, the source gives them in different places.

Experiments:
Pseudomonas aeruginosa = assay: In-vitro antibacterial test, agar dilution MIC; format: cell-based; conditions: for MIC: Pseudomonas aeruginosa, read-out: In-vitro MIC
Source text: (§4) The test bacterial strains were the standard quality control test strains of Klebsiella pneumoniae strains (Strains No. CMCC 46114-8), Pseudomonas aeruginosa (Strains No. ATCC 27853), Escherichia coli (Strains No. ATCC25922), and Staphylococcus aureus cocci (Strains No. ATCC25925). Other bacteria included those isolated from sputum, throat swab or urine of patients with acute bacterial respiratory tract infection or urinary tract infection and identified by the hospitals.
(§5) HCl levofloxacin injection and NaCl ciprofloxacin lactate injection were diluted with sterilized distilled water to a concentration of 1920 μg/mL.

Staphylococcus aureus = assay: In-vitro antibacterial test, agar dilution MIC; format: cell-based; conditions: for MIC: Staphylococcus aureus, read-out: In-vitro MIC
Source text: as §4, §5

Escherichia coli = assay: In-vitro antibacterial test, agar dilution MIC; format: cell-based; conditions: for MIC: Escherichia coli, read-out: In-vitro MIC
Source text: as §4, §5

Klebsiella pneumoniae = assay: In-vitro antibacterial test, agar dilution MIC; format: cell-based; conditions: for MIC: Klebsiella pneumoniae
Source text: as §4, §5

Vibrio cholerae = assay: In-vitro antibacterial test, agar dilution MIC; format: cell-based; conditions: for In-vitro MIC: agar dilution; for MIC: Vibrio cholerae, read-out: In-vitro MIC
Source text: as §4, §5

[1] = Solubility test: maximum solubility in water; format: physicochemical; conditions: thermodynamic from solid
Method: Three lots of mesylates and three lots of lactates, respectively, were subjected to preliminary tests for maximum solubility in water. At ambient temperature (25° C.), 0.2 g of sample was dissolved in 1 mL of water. To the solution was added 0.1 g of the sample each time until the sample could no longer be dissolved. The amount of sample dissolved was the maximum solubility.

Enterococcus faecalis = assay: In-vitro antibacterial test, agar dilution MIC; format: cell-based; conditions: read-out: In-vitro MIC
Source text: as §4, §5

Streptococcus pneumoniae = assay: In-vitro antibacterial test, agar dilution MIC; format: cell-based; conditions: Streptococcus pneumoniae, read-out: In-vitro MIC
Method: (§1) Test method: the agar dilution method was used for the minimum inhibitory concentration (MIC) determination. The antibacterial chemicals were mixed with given amounts of agar in various concentrations and the mixtures were made into solid plates. Each plate had the antibacterial concentration two times higher than the next plate. Bacteria species were then added to the surface of the plates, cultured, and observed for their growth.
(§2) Other bacteria included those isolated from sputum, throat swab or urine of patients with acute bacterial respiratory tract infection or urinary tract infection and identified by the hospitals.
(§3) (S)-6-fluoro-1-methyl-4-oxo-7-(1-piperazinyl)-1H,4H-[1,3]thiazeto[3,2-a]quino line-3-carboxylic acid lactate and other test samples, equivalent to 96 mg of ulifloxacin, were dissolved in sterilized distilled water to make up 50 mL of each solution.

Enterobacter cloacae = assay: In-vitro antibacterial test, agar dilution MIC; format: cell-based; conditions: read-out: In-vitro MIC
Source text: as §4, §5

Sprague-Drwlog rats = conditions: intravenous injection, four weeks; cited from earlier work
rats = conditions: rat, in vivo; cited from earlier work
mice = conditions: mouse, in vivo; cited from earlier work
[2] = tested on: Klebsiella pneumoniae, Pseudomonas aeruginosa, Staphylococcus aureus, Escherichia coli, Enterococcus faecalis, Streptococcus pneumoniae, Enterobacter cloacae …; assay: In-vitro antibacterial tests, summary over the tested bacteria; format: cell-based; conditions: for antibacterial activities compared with compounds 7 and 8: against the above four bacteria, concentrations calculated as equivalents to NM394; for antibacterial activity (in words): against the eight tested bacteria
Method: as §1, §2, §3

[3] = tested on: New Zealand rabbit ear vein and surrounding tissues; assay: Vascular irritation tests; format: in vivo, New Zealand rabbits; conditions: vein injection once a day for 3 days, high and low doses
Source text: Sixteen New Zealand rabbits were divided into 4 groups: a control group and three treatment groups for compounds 4, 5, and 6, respectively; each group had 4 rabbits. The rabbits of the treatment groups were vein-injected on their left ears with high doses of the test samples and on their right ears with low doses of the test samples. The rabbits of the control group were rein-injected on their both left and right ears with sodium chloride solution. The injections continued for 3 days, once a day. Two rabbits from each group were anatomized after 24 hours of each injection.

SD rats = conditions: for NOAEL (no observed adverse effect level) / targeted organ of toxicity: SD rats; for NOAEL (no observed adverse effect level): 28 days continuous intravenous administration, calculated based on NM394; for targeted organ of toxicity: intravenous; for rats with crystals in renal tubules / rats with kidney protein casts / rats with mild cortical tubular dilatation: after 28 days
Method: The dose without toxic reaction was thereby determined and the long term toxicity to SD rats was tested. One hundred forty SD rats were randomly divided into 7 groups depending on their body weight and sex; each group had 20 rats with 10 males and 10 females. […] The rats were administrated by intravenous injection, once a day for consecutive 4 weeks. The recovery was monitored for 2 weeks after treatment.
Drug preparation: the drugs were dissolved with a saline solution to the desired concentration before administration. Administration: intravenous injection. Delivery period: 28 days continuously. Observation and inspection: Observation and inspection projects, targets and time: including the general state of observation (7), hematologic (16), biochemical blood test (18), urine (10) and pathological examination.
General observation: the appearance of signs, behavior, glands, respiratory and stool, daily observation and timely recording, discovering dead or dying animals, timely anatomical examination, food intake, and body weight once weekly.
Blood tests: abdominal aortic blood for hematology testing, in the 16 testing indicators, leukocyte classification using whole blood smear, Wright stain staining; prothrombin time (PT) with a 0.109 mmol/L of citrate Citrus medica sodium (with blood volume ratio of 1:9) anticoagulant, 3000 r/min centrifugal 10 min, taking with BE Thromotimer plasma coagulation analyzer (Germany) determination; other indicators to EDTA anticoagulant, using SWELAB AC920EO automated hematology analyzer (Sweden).
Biochemical blood tests: blood sampling method same as above, blood serum obtained by 3000 r/min centrifugal 10 min. In the 21 indicators, the Na+, K+, Cl^− were determined using EasyLyte Plus Na/K/Cl analyzer (USA), the other indexes of blood were determined using a Hitachi 7020 automatic biochemical analyzer (Japan) determination.
Urine tests: 16 h urine collection, using [sequence] 100 urine analyzer.
Pathology: after anesthesia, the animal was killed by blood letting of the abdominal aorta. System anatomy and visual observation of changes in various organs were performed; and organ weights were determined. Tissue was fixed in 10% neutral formalin; plates were made by conventional paraffin producers, HE staining, and light microscopy.
Statistical analysis: In the different groups, the body weight, hematology, blood chemistry, urine measurements, organ weights, organ coefficient were calculated for the mean±standard deviation and t-test comparison between groups. Pathological abnormalities according to their incidence and severity were compared between groups.

[4] = high dose group (60 mg/kg·bw), tissue microscopy
[5] = maximum solubility in water, ambient temperature (25° C.), average of two tests, preliminary, read-out: Water Solubility

Compound	In-vitro MIC (Pseudomonas aeruginosa; agar dilution) [µg/mL]	In-vitro MIC (Staphylococcus aureus; agar dilution) [µg/mL]	In-vitro MIC (Escherichia coli; agar dilution) [µg/mL]	In-vitro MIC (Klebsiella pneumoniae) [µg/mL]	In-vitro MIC (Vibrio cholerae) [µg/mL]	solubility ([1]; 25 °C, water) [mg/mL]	MIC (Staphylococcus aureus; agar dilution) [µg/mL]	MIC (Enterococcus faecalis) [µg/mL]	MIC (Streptococcus pneumoniae) [µg/mL]	MIC (Escherichia coli) [µg/mL]	MIC (Klebsiella pneumoniae) [µg/mL]	MIC (Enterobacter cloacae; agar dilution) [µg/mL]	MIC (Vibrio cholerae) [µg/mL]	MIC (Pseudomonas aeruginosa) [µg/mL]	MIC (Staphylococcus aureus) [µg/mL]	antibacterial activities compared with compounds 7 and 8 [2]	antibacterial activity (in words) [2]	irritation to ear vein and surrounding tissues [3]	solubility [1, 5] [mg/mL]	MIC (Enterococcus faecalis; agar dilution) [µg/mL]	other results
(R)-6-fluoro-1-methyl-4-oxo-7-(1-piperazinyl)-1H,4H-[1,3]thiazeto[3,2-a]quinoline-3-carboxylic acid gluconate [Compound 10]	1	1	0.25	0.5	2																
CC1Sc2c(C(=O)O)c(=O)c3cc(F)c(N4CCNCC4)cc3n21.CS(=O)(=O)O (racemic) [Ulifloxaci mesylate (±), (±)-6-fluoro-1-methyl-4-oxo-7-(1-piperazinyl)-1H,4H-[1,3]thiazeto[3,2-a]quinoline-3-carboxylic acid mesylate, reference compound]						340	0.5	1.5	0.088	0.063	0.2	1	0.5								
CC1Sc2c(C(=O)O)c(=O)c3cc(F)c(N4CCNCC4)cc3n21 (racemic) [Ulifloxacin, 6-fluoro-1-methyl-4-oxo-7-(1-piperazinyl)-1H,4H-[1,3]thiazeto[3,2-a]quinoline-3-carboxylic acid, reference compound]							0.5 (≈ 1.43 µM)					1 (≈ 2.86 µM)									MIC (Pseudomonas aeruginosa; agar dilution): 0.5 µg/mL (≈ 1.43 µM); MIC (Streptococcus pneumoniae; agar dilution): 0.031 µg/mL (≈ 0.0887 µM); MIC (Escherichia coli; agar dilution): 0.08 µg/mL (≈ 0.229 µM); NOAEL (no observed adverse effect level) dose (Sprague-Drwlog rats): 3 mg/kg; toxic effects of intravenous injection (rats): convulsions, difficult breathing, injection site redness, swelling, and necrosis; toxic effects of intravenous injection (mice): losing weight, testicular atrophy, and visible pulmonary congestion
CS(=O)(=O)O.C[C@@H]1Sc2c(C(=O)O)c(=O)c3cc(F)c(N4CCNCC4)cc3n21 [Compound 5, (S)-6-fluoro-1-methyl-4-oxo-7-(1-piperazinyl)-1H,4H-[1,3]thiazeto[3,2-a]quinoline-3-carboxylic acid mesylate]						490		0.2			0.02	0.5	0.02	0.25	0.25	slightly stronger	relatively strong antibacterial activity	no irritation			MIC (Streptococcus pneumoniae; agar dilution): 0.01 µg/mL; NOAEL (no observed adverse effect level) (SD rats): 30 mg/kg·bw; targeted organ of toxicity (SD rats): the kidney; rats with crystals in renal tubules (SD rats; [4]): two; rats with kidney protein casts (SD rats; [4]): one; rats with mild cortical tubular dilatation (SD rats; [4]): two
CS(=O)(=O)O.C[C@H]1Sc2c(C(=O)O)c(=O)c3cc(F)c(N4CCNCC4)cc3n21 [Compound 9, (R)-6-fluoro-1-methyl-4-oxo-7-(1-piperazinyl)-1H,4H-[1,3]thiazeto[3,2-a]quinoline-3-carboxylic acid mesylate]						501	2	4	0.125		0.5	4	2	1							
CC(O)C(=O)O.CC1Sc2c(C(=O)O)c(=O)c3cc(F)c(N4CCNCC4)cc3n21 (racemic) [Ulifloxaci lactate (±), (±)-6-fluoro-1-methyl-4-oxo-7-(1-piperazinyl)-1H,4H-[1,3]thiazeto[3,2-a]quinoline-3-carboxylic acid lactate, reference compound]									0.1	0.125					0.25				106	2	MIC (Enterobacter cloacae): 1.25 µg/mL
(±)-6-fluoro-1-methyl-4-oxo-7-(1-piperazinyl)-1H,4H-[1,3]thiazeto[3,2-a]quinoline-3-carboxylic acid gluconate [Ulifloxaci gluconate (±), reference compound]	0.5	0.5	0.05	0.2	0.5																
(S)-6-fluoro-1-methyl-4-oxo-7-(1-piperazinyl)-1H,4H-[1,3]thiazeto[3,2-a]quinoline-3-carboxylic acid gluconate [Compound 6]	0.25	0.25	0.01	0.02	0.02											slightly stronger	relatively strong antibacterial activity	no irritation			
CC(O)C(=O)O.C[C@H]1Sc2c(C(=O)O)c(=O)c3cc(F)c(N4CCNCC4)cc3n21 [Compound 13, (R)-6-fluoro-1-methyl-4-oxo-7-(1-piperazinyl)-1H,4H-[1,3]thiazeto[3,2-a]quinoline-3-carboxylic acid lactate]									0.125	0.25				1	1				116	4	
CC(O)C(=O)O.C[C@@H]1Sc2c(C(=O)O)c(=O)c3cc(F)c(N4CCNCC4)cc3n21 [Compound 4, (S)-6-fluoro-1-methyl-4-oxo-7-(1-piperazinyl)-1H,4H-[1,3]thiazeto[3,2-a]quinoline-3-carboxylic acid lactate]									0.02	0.01		0.5		0.25	0.125	slightly stronger	relatively strong antibacterial activity	no irritation	70	0.5	NOAEL (no observed adverse effect level) (SD rats): 30 mg/kg·bw; targeted organ of toxicity (SD rats): the kidney; rats with crystals in renal tubules (SD rats; [4]): 3; rats with kidney protein casts (SD rats; [4]): one; rats with mild cortical tubular dilatation (SD rats; [4]): 3; rats with mild interstitial inflammatory cell infiltration (SD rats; [4]): 1
